In paper PMC10823514, “Target Identification of a Class of Pyrazolone Protein Aggregation Inhibitor Therapeutics for Amyotrophic Lateral Sclerosis” (ACS Central Science, 2023):
pKd: −log10 of the molar value. Values joined by “and” are separate entries in the source; they are usually repeats but may differ in a detail not shown here. Equal entries are not always repeated.

Target: T1, 14-3-3-E (Homo sapiens, UniProt P62258)
T1 construct: His-tag (TEV-cleavable) (cleaved yes); host or cells: E. coli (BL21)
T1 sequence (P62258 1-255): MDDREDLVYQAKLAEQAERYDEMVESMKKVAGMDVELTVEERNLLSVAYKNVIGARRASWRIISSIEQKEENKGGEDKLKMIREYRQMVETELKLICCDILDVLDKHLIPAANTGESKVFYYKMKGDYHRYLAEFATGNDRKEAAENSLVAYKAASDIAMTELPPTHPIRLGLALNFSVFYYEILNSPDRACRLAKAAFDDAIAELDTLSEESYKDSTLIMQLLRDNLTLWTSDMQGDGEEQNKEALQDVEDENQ
Assay: Fluorescent thermal shift assay (FTSA) with 14-3-3-E
Format: binding
Details: for Tm shift (ΔTm): SYPRO orange
Protocol: His-tagged 14-3-3-E, B, and H plasmids were purchased from Addgene (plasmid ID# 31562, 39128, and 38814, respectively). E. coli (BL21) were transformed with extracted plasmids via heat shock and plated on selected media. Individual colonies were selected, grown, and sequenced to confirm gene presence. 1 L cultures were grown to an OD600 of 0.6 at 37 °C and 220 rpm. Protein expression was induced with 1 mM IPTG and expressed for 12 h at 100 rpm and room temperature (approximately 25 °C). Cells were spun down at 4000 rpm for 15 min at 4 °C and resuspended in lysis buffer containing 50 mM Tris (7.4), 150 mM NaCl, 0.08% DDM, 5 mM imidazole, and 5% glycerol (with an EDTA-free complete mini protease inhibitor cocktail). Cells were lysed via sonication, and the lysate was separated from cell debris by centrifugation at 15,000 rpm, 4 °C, for 45 min. The His-tagged protein was purified using QIAGEN Ni-NTA superflow columns, and the His-tag was removed with TEV protease. His-tag-removed proteins were further purified by size exclusion chromatography. His tag removal and size exclusion chromatography purification were done at the Northwestern University Protein Production core. 14-3-3-Q and 14-3-3-G proteins were purchased from Abchem (catalog numbers ab85270 and ab53869, respectively).
All of the FTSA experiments were conducted in HEPES buffer (60 mM HEPES, 150 mM NaCl, pH 7.4). A DMSO balanced 8-point dilution series of the compound in HEPES buffer was prepared in a 96-well assay plate (200, 100, 50, 25, 12.5, 6.25, 3.125, and 0 μM). Then, a 5 μL volume of the dilution series was transferred to a 384-well PCR plate using a multichannel pipet, and the plate was centrifuged at 1000 rpm for 2 min (the plate was covered with an adhesive aluminum seal). The protein sample was premixed at a concentration of 0.04 μg/μL with a 5X concentration of SYPRO orange in HEPES buffer, and a 5 μL aliquot was added to the compound wells. The plate was covered with an optical adhesive seal and was shaken for 2 min, followed by centrifugation at 1000 rpm for 2 min. The thermal scan was performed from 20 to 90 °C with a temperature gradient of 0.5 °C/min. The fluorescence was measured on a Bio-Rad CFX384 real-time PCR instrument.

| Compound | Tm shift (ΔTm) [°C] | pKd (fit of ΔTm versus concentration, n = 2, read-out: Kd^app) |
| --- | --- | --- |
| C#CCN(Cc1cc(=O)[nH][nH]1)Cc1c(F)c(F)c(N=[N+]=[N-])c(F)c1F [PRAPP, 5-(((4-Azido-2,3,5,6-tetrafluorobenzyl)(prop-2-yn-1-yl)amino)methyl)-1,2-dihydro-3H-pyrazol-3-one] | 2.5 | – |
| O=c1cc(COc2cc(Cl)cc(Cl)c2)[nH][nH]1 [P2] | 3.2 | 5.55 and 5.54 |
